The source made the active and inactive calls. The calls are words filed in the database; no cut-off is given here.
Columns and labels:
[1] = tested on: Capsella bursa-pastoris; experiment: Herbicidal activity against Capsella bursa-pastoris in wheat cultivar lifeng 703 field assessed as decrease in biomass applied during late tillering stage of winter wheatat 525 g ai/h measured after 45 days under field trials; type: functional, organism-based
[2] = tested on: Triticum aestivum; experiment: Toxicity against Winter Triticum aestivum (wheat) cultivar Dongmai 12 assessed as plant height at 450 g ai/h applied at 2-tillering stage of crop in winter (reference value: 72.7 cm); type: organism-based; details: in vivo, other
[3] = tested on: Triticum aestivum; experiment: Toxicity against Winter Triticum aestivum (wheat) cultivar Dongmai 12 assessed as spike numbers at 900 g ai/h applied at late tillering stage of crop in spring (reference value: 482.4/m'2); type: organism-based; details: in vivo, other
[4] = tested on: Triticum aestivum; experiment: Toxicity against Winter Triticum aestivum (wheat) cultivar Dongmai 12 assessed as spike numbers at 900 g ai/h applied at 3-leaf stage of crop (reference value: 482.4/m'2); type: organism-based; details: in vivo, other
[5] = tested on: Triticum aestivum; experiment: Toxicity against Winter Triticum aestivum (wheat) cultivar Dongmai 12 assessed as 1000-grain weight at 450 g ai/h applied at 3-leaf stage of crop (reference value: 42.6 gms); type: organism-based; details: in vivo, other
[6] = tested on: Triticum aestivum; experiment: Toxicity against Winter Triticum aestivum (wheat) cultivar Dongmai 12 assessed as spike numbers at 450 g ai/h applied at 2-tillering stage of crop in winter (reference value: 482.4/m'2); type: organism-based; details: in vivo, other
[7] = tested on: Triticum aestivum; experiment: Toxicity against Winter Triticum aestivum (wheat) cultivar Dongmai 12 assessed as spike numbers at 900 g ai/h applied at 2-tillering stage of crop in winter (reference value: 482.4/m'2); type: organism-based; details: in vivo, other
[8] = tested on: Triticum aestivum; experiment: Toxicity against Winter Triticum aestivum (wheat) cultivar Dongmai 12 assessed as 1000-grain weight at 225 g ai/h applied at 2-tillering stage of crop in winter (reference value: 42.6 g); type: organism-based; details: in vivo, other
[9] = tested on: Triticum aestivum; experiment: Toxicity against Winter Triticum aestivum (wheat) cultivar Dongmai 12 assessed as plant height at 900 g ai/h applied at 2-tillering stage of crop in winter (reference value: 72.7 cm); type: organism-based; details: in vivo, other
[10] = tested on: Triticum aestivum; experiment: Toxicity against Winter Triticum aestivum (wheat) cultivar Dongmai 12 assessed as plant height at 225 g ai/h applied at 2-tillering stage of crop in winter (reference value: 72.7 cm); type: organism-based; details: in vivo, other
[11] = tested on: Triticum aestivum; experiment: Toxicity against Winter Triticum aestivum (wheat) cultivar Dongmai 12 assessed as plant height at 225 g ai/h applied at late tillering stage of crop in spring (reference value: 72.7 cm); type: organism-based; details: in vivo, other
[12] = tested on: Capsella bursa-pastoris; experiment: Herbicidal activity against Capsella bursa-pastoris in wheat cultivar lifeng 703 field assessed as decrease in plant number applied during late tillering stage of winter wheatat 525 g ai/h measured after 45 days under field trials; type: functional, organism-based
[13] = tested on: Triticum aestivum; experiment: Toxicity against Winter Triticum aestivum (wheat) cultivar Dongmai 12 assessed as plant height at 900 g ai/h applied at 3-leaf stage of crop (reference value: 72.7 cm); type: organism-based; details: in vivo, other
[14] = tested on: Capsella bursa-pastoris; experiment: Herbicidal activity against Capsella bursa-pastoris in wheat cultivar Dongmai 12 field assessed as decrease in plant number applied during late tillering stage of winter wheatat 525 g ai/h measured after 45 days under field trials; type: functional, organism-based
[15] = tested on: Triticum aestivum; experiment: Toxicity against Winter Triticum aestivum (wheat) cultivar Dongmai 12 assessed as plant height at 900 g ai/h applied at booting stage of crop (reference value: 72.7 cm); type: organism-based; details: in vivo, other
[16] = tested on: Triticum aestivum; experiment: Toxicity against Winter Triticum aestivum (wheat) cultivar Dongmai 12 assessed as plant height at 450 g ai/h applied at booting stage of crop (reference value: 72.7 cm); type: organism-based; details: in vivo, other
[17] = tested on: Triticum aestivum; experiment: Toxicity against Winter Triticum aestivum (wheat) cultivar Dongmai 12 assessed as plant height at 450 g ai/h applied at 3-leaf stage of crop (reference value: 72.7 cm); type: organism-based; details: in vivo, other
[18] = tested on: Triticum aestivum; experiment: Toxicity against Winter Triticum aestivum (wheat) cultivar Dongmai 12 assessed as plant height at 225 g ai/h applied at booting stage of crop (reference value: 72.7 cm); type: organism-based; details: in vivo, other
[19] = tested on: Triticum aestivum; experiment: Toxicity against Winter Triticum aestivum (wheat) cultivar Dongmai 12 assessed as spike numbers at 450 g ai/h applied at late tillering stage of crop in spring (reference value: 482.4/m'2); type: organism-based; details: in vivo, other
[20] = tested on: Capsella bursa-pastoris; experiment: Herbicidal activity against Capsella bursa-pastoris in wheat cultivar Dongmai 12 field assessed as decrease in biomass applied during late tillering stage of winter wheatat 525 g ai/h measured after 45 days under field trials; type: functional, organism-based
[21] = tested on: Triticum aestivum; experiment: Toxicity against Winter Triticum aestivum (wheat) cultivar Dongmai 12 assessed as plant height at 225 g ai/h applied at 3-leaf stage of crop (reference value: 72.7 cm); type: organism-based; details: in vivo, other
[22] = tested on: Triticum aestivum; experiment: Toxicity against Winter Triticum aestivum (wheat) cultivar Dongmai 12 assessed as 1000-grain weight at 225 g ai/h applied at late tillering stage of crop in spring (reference value: 42.6 g); type: organism-based; details: in vivo, other
[23] = tested on: Triticum aestivum; experiment: Toxicity against Winter Triticum aestivum (wheat) cultivar Dongmai 12 assessed as plant height at 450 g ai/h applied at late tillering stage of crop in spring (reference value: 72.7 cm); type: organism-based; details: in vivo, other
[24] = tested on: Triticum aestivum; experiment: Toxicity against Winter Triticum aestivum (wheat) cultivar Dongmai 12 assessed as 1000-grain weight at 900 g ai/h applied at booting stage of crop (reference value: 42.6 g); type: organism-based; details: in vivo, other
[25] = tested on: Descurainia sophia; experiment: Herbicidal activity against Descurainia sophia in Wheat cultivar lifeng 703 field assessed as decrease in plant number applied during late tillering stage of winter wheat at 525 g ai/h measured after 45 days under field trials; type: functional, organism-based
[26] = tested on: Triticum aestivum; experiment: Toxicity against Winter Triticum aestivum (wheat) cultivar Dongmai 12 assessed as spike numbers at 225 g ai/h applied at 2-tillering stage of crop in winter (reference value: 482.4/m'2); type: organism-based; details: in vivo, other
[27] = tested on: Triticum aestivum; experiment: Toxicity against Winter Triticum aestivum (wheat) cultivar Dongmai 12 assessed as 1000-grain weight at 225 g ai/h applied at 3-leaf stage of crop (reference value: 42.6 gms); type: organism-based; details: in vivo, other
[28] = tested on: Triticum aestivum; experiment: Toxicity against Winter Triticum aestivum (wheat) cultivar Dongmai 12 assessed as spike numbers at 225 g ai/h applied at 3-leaf stage of crop (reference value: 482.4/m'2); type: organism-based; details: in vivo, other
[29] = tested on: Triticum aestivum; experiment: Toxicity against Winter Triticum aestivum (wheat) cultivar Dongmai 12 assessed as plant height at 900 g ai/h applied at late tillering stage of crop in spring (reference value: 72.7 cm); type: organism-based; details: in vivo, other
[30] = tested on: Triticum aestivum; experiment: Toxicity against Winter Triticum aestivum (wheat) cultivar Dongmai 12 assessed as 1000-grain weight at 225 g ai/h applied at booting stage of crop (reference value: 42.6 g); type: organism-based; details: in vivo, other
[31] = tested on: Triticum aestivum; experiment: Toxicity against Winter Triticum aestivum (wheat) cultivar lifeng 703 assessed as grain yield at 525 g ai/h; type: organism-based; details: in vivo
[32] = tested on: Triticum aestivum; experiment: Toxicity against Winter Triticum aestivum (wheat) cultivar Dongmai 12 assessed as spike numbers at 450 g ai/h applied at booting stage of crop (reference value: 482.4/m'2); type: organism-based; details: in vivo, other
[33] = tested on: Triticum aestivum; experiment: Toxicity against Winter Triticum aestivum (wheat) cultivar Dongmai 12 assessed as 1000-grain weight at 450 g ai/h applied at booting stage of crop (reference value: 42.6 g); type: organism-based; details: in vivo, other
[34] = tested on: Triticum aestivum; experiment: Toxicity against Winter Triticum aestivum (wheat) cultivar Dongmai 12 assessed as spike numbers at 450 g ai/h applied at 3-leaf stage of crop (reference value: 482.4/m'2); type: organism-based; details: in vivo, other
[35] = tested on: Triticum aestivum; experiment: Toxicity against Winter Triticum aestivum (wheat) cultivar Dongmai 12 assessed as spike numbers at 225 g ai/h applied at booting stage of crop (reference value: 482.4/m'2); type: organism-based; details: in vivo, other
[36] = tested on: Triticum aestivum; experiment: Toxicity against Winter Triticum aestivum (wheat) cultivar Dongmai 12 assessed as spike numbers at 900 g ai/h applied at booting stage of crop (reference value: 482.4/m'2); type: organism-based; details: in vivo, other
[37] = tested on: Triticum aestivum; experiment: Toxicity against Winter Triticum aestivum (wheat) cultivar Dongmai 12 assessed as 1000-grain weight at 900 g ai/h applied at 2-tillering stage of crop in winter (reference value: 42.6 g); type: organism-based; details: in vivo, other
[38] = tested on: Triticum aestivum; experiment: Toxicity against Winter Triticum aestivum (wheat) cultivar Dongmai 12 assessed as grain yield at 525 g ai/h; type: organism-based; details: in vivo
[39] = tested on: Capsella bursa-pastoris; experiment: Herbicidal activity against Capsella bursa-pastoris assessed as decrease in biomass treated at 4-5 leaf stage measured after 14 days under greenhouse trials; type: functional
[40] = tested on: Descurainia sophia; experiment: Herbicidal activity against Descurainia sophia assessed as decrease in biomass treated at 4-5 leaf stage measured after 14 days under greenhouse trials; type: functional
[41] = tested on: Descurainia sophia; experiment: Herbicidal activity against Descurainia sophia in Wheat cultivar Dongmai 12 field assessed as decrease in plant number applied during late tillering stage of winter wheat at 525 g ai/h measured after 45 days under field trials; type: functional, organism-based
[42] = tested on: Descurainia sophia; experiment: Herbicidal activity against Descurainia sophia in Wheat cultivar lifeng 703 field assessed as decrease in biomass applied during late tillering stage of winter wheat at 525 g ai/h measured after 45 days under field trials; type: functional, organism-based
[43] = tested on: Descurainia sophia; experiment: Herbicidal activity against Descurainia sophia in Wheat cultivar Dongmai 12 field assessed as decrease in biomass applied during late tillering stage of winter wheat at 525 g ai/h measured after 45 days under field trials; type: functional, organism-based
[44] = tested on: Triticum aestivum; experiment: Toxicity against Winter Triticum aestivum (wheat) cultivar Dongmai 12 assessed as 1000-grain weight at 900 g ai/h applied at 3-leaf stage of crop (reference value: 42.6 g); type: organism-based; details: in vivo, other
[45] = tested on: Triticum aestivum; experiment: Toxicity against Winter Triticum aestivum (wheat) cultivar Dongmai 12 assessed as 1000-grain weight at 450 g ai/h applied at 2-tillering stage of crop in winter (reference value: 42.6 g); type: organism-based; details: in vivo, other
[46] = tested on: Triticum aestivum; experiment: Toxicity against Winter Triticum aestivum (wheat) cultivar Dongmai 12 assessed as abnormal ear formation at 525 g ai/h; type: organism-based; details: in vivo
[47] = tested on: Triticum aestivum; experiment: Toxicity against Winter Triticum aestivum (wheat) cultivar Dongmai 12 assessed as 1000-grain weight at 450 g ai/h applied at late tillering stage of crop in spring (reference value: 42.6 g); type: organism-based; details: in vivo, other
[48] = tested on: Amaranthus retroflexus; experiment: Herbicidal activity against Amaranthus retroflexus assessed as decrease in biomass treated at 4-5 leaf stage measured after 14 days under greenhouse trials; type: functional
[49] = tested on: Triticum aestivum; experiment: Toxicity against Winter Triticum aestivum (wheat) cultivar lifeng 703 assessed as abnormal ear formation at 525 g ai/h; type: organism-based; details: in vivo
[50] = tested on: Triticum aestivum; experiment: Toxicity against Winter Triticum aestivum (wheat) cultivar Dongmai 12 assessed as spike numbers at 225 g ai/h applied at late tillering stage of crop in spring (reference value: 482.4/m'2); type: organism-based; details: in vivo, other
[51] = tested on: Myosoton aquaticum; experiment: Herbicidal activity against Myosoton aquaticum assessed as decrease in biomass treated at four to five-leaf stage measured after 14 days under greenhouse trials; type: functional
[52] = tested on: Triticum aestivum; experiment: Toxicity against Winter Triticum aestivum (wheat) cultivar Dongmai 12 assessed as 1000-grain weight at 900 g ai/h applied at late tillering stage of crop in spring (reference value: 42.6 g); type: organism-based; details: in vivo, other

## O=C(O)COc1ccc(Cl)cc1Cl [2,4-DICHLOROPHENOXYACETIC ACID]
[1]
  inhibition: Active
[2]
  Activity: 71.9 cm
[3]
  Activity: 480 /m2
[4]
  Activity: 361.5 /m2
[5]
  Activity: 38.8 g
[6]
  Activity: 453 /m2
[7]
  Activity: 450 /m2
[8]
  Activity: 42.6 g
[9]
  Activity: 71.5 cm
[10]
  Activity: 72 cm
[11]
  Activity: 73.2 cm
[12]
  inhibition: Active
[13]
  Activity: 61.6 cm
[14]
  inhibition: Active
[15]
  Activity: 70.5 cm
[16]
  Activity: 71.5 cm
[17]
  Activity: 66 cm
[18]
  Activity: 72 cm
[19]
  Activity: 480 /m2
[20]
  inhibition: Active
[21]
  Activity: 70.3 cm
[22]
  Activity: 42.4 g
[23]
  Activity: 72 cm
[24]
  Activity: 41.7 g
[25]
  inhibition: Active
[26]
  Activity: 478.5 /m2
[27]
  Activity: 40.9 g
[28]
  Activity: 406.5 /m2
[29]
  Activity: 72.3 cm
[30]
  Activity: 42.5 g
[31]
  Activity: 8.2 tons/ha
[32]
  Activity: 474 /m2
[33]
  Activity: 42.5 g
[34]
  Activity: 366 /m2
[35]
  Activity: 484.5 /m2
[36]
  Activity: 474 /m2
[37]
  Activity: 42.2 g
[38]
  Activity: 5.6 tons/ha
[39]
  ED50: 75.4 gAi/ha
[40]
  ED50: 23.9 gAi/ha
[41]
  inhibition: Active
[42]
  inhibition: Active
[43]
  inhibition: Active
[44]
  Activity: 37.5 g
[45]
  Activity: 42.6 g
[46]
  Activity: Non-toxic
[47]
  Activity: 42.2 g
[48]
  ED50: 74.1 gAi/ha
[49]
  Activity: Toxic
[50]
  Activity: 484.5 /m2
[51]
  ED50: 60.2 gAi/ha
[52]
  Activity: 42.2 g

Source: ChEMBL document CHEMBL3046498, “Weed control efficacy and winter wheat safety of a novel herbicide HW02” (Crop Prot, 2013)
